The results in this text go back to patent US20260258050A1, “IMMUNOMODULATOR” (HITGEN INC., priority 2023, published 2026).

As usually defined, the IC50 is the concentration that gives 50% inhibition.

In this assay the target is T1, Human IL-17A (Homo sapiens, UniProt Q16552).
T1 sequence (Q16552 20-155 limits assumed): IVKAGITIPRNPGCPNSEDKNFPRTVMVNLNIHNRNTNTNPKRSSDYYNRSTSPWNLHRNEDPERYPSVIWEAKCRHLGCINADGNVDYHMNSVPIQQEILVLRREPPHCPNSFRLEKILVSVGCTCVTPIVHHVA
Put plainly: IL-17A enzyme-linked immunosorbent assay (competitive ELISA, IL-17A/IL-17Ra receptor-ligand binding). The following applies: human IL-17A coated plate, human IL-17Ra, read-out: IC50, inhibitory activity of compounds on human IL-17A. Set-up: purchased Sino Biological Inc. 12047-H07B. The gist of the method: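 Competitive ELISA with plates coated with human IL-17A at 0.2 μg/ml, blocked with 5% skim milk. Compound pre-incubated with IL-17A 10 min at 25 °C, then 16 nM IL-17Ra stock added for 30 min. Bound receptor detected by anti-Fc HRP/TMB, A450. IC50 from variable-slope fit of blank-corrected residual activity.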
A general note: An ELISA detects its analyte on a solid surface through an enzyme-linked reagent.

Structures are written as SMILES.

Consider `CCn1nccc1C(=O)N[C@H](C(=O)Nc1ccc2c(c1)COCCc1n[nH]c(C)c1-2)C(C1CC1)C1CC1` [compound 3], for which the half-inhibitory concentration (IC50) is at most 50 nM. As for `Cc1[nH]nc2c1-c1ccc(NC(=O)[C@@H](NC(=O)c3ccnn3C3CC3)C(C3CC3)C3CC3)cc1COCC2` [compound 6], the IC50 was at most 50 nM.

Regarding `Cc1[nH]nc2c1-c1cnc(NC(=O)[C@@H](NC(=O)c3ccnn3C[C@@H]3C[C@H]3F)C(C3CC3)C3CC3)cc1COCC2` [compound 125], the IC50 was at most 50 nM. The figure for `Cc1[nH]nc2c1-c1cc(F)c(NC(=O)[C@@H](NC(=O)c3ccnn3C(C)C)C(C3CC3)C3CC3)cc1CN(C)C(=O)C2` [compound 132] is at most 50 nM; for `CCn1nccc1C(=O)N[C@H](C(=O)Nc1cc2c(cc1F)-c1c(n[nH]c1C)CC(=O)N(C)C2)C(C1CC1)C1CC1` [compound 133] it is at most 50 nM; for `Cc1[nH]nc2c1-c1cc(F)c(NC(=O)[C@@H](NC(=O)c3ccnn3C(C)C)C(C3CC3)C3CC3)cc1CN(C1CC1)C(=O)C2` [compound 136] it is at most 50 nM. Regarding `CCN1Cc2cc(NC(=O)[C@@H](NC(=O)c3ccnn3C(C)C)C(C3CC3)C3CC3)c(F)cc2-c2c(n[nH]c2C)CC1=O` [compound 142], the IC50 was at most 50 nM. As to `CCN1Cc2cc(NC(=O)[C@@H](NC(=O)c3ccnn3CC)C(C3CC3)C3CC3)c(F)cc2-c2c(n[nH]c2C)CC1=O` [compound 143], the IC50 is at most 50 nM. Turning to `Cc1[nH]nc2c1-c1cc(F)c(NC(=O)[C@@H](NC(=O)c3ccnn3C(C)C)C(C3CC3)C3CC3)cc1CN(CC(F)F)C(=O)C2` [compound 144], the IC50 was at most 50 nM. For the molecule `CCn1nccc1C(=O)N[C@H](C(=O)Nc1cc2c(cc1F)-c1c(n[nH]c1C)CC(=O)N(CC(F)F)C2)C(C1CC1)C1CC1` [compound 145], the 50% inhibitory concentration (IC50) was at most 50 nM. On to `Cc1[nH]nc2c1-c1cc(F)c(NC(=O)[C@@H](NC(=O)c3ccnn3C(C)C)C(C3CC3)C3CC3)cc1CN(CC(C)(F)F)C(=O)C2` [compound 148], for which the 50% inhibitory concentration (IC50) was at most 50 nM. The figure for `CCn1nccc1C(=O)N[C@H](C(=O)Nc1cc2c(cc1F)-c1c(n[nH]c1C)CC(=O)N(CC(C)(F)F)C2)C(C1CC1)C1CC1` [compound 149] is at most 50 nM. Take `Cc1[nH]nc2c1-c1cc(F)c(NC(=O)[C@@H](NC(=O)c3ccnn3C(C)C)C(C3CC3)C3CC3)cc1CN(C(C)C)C(=O)C2` [compound 150]: the concentration for half-maximal inhibition (IC50) was at most 50 nM. As to `CCn1nccc1C(=O)N[C@H](C(=O)Nc1cc2c(cc1F)-c1c(n[nH]c1C)CC(=O)N(C(C)C)C2)C(C1CC1)C1CC1` [compound 151], the IC50 is at most 50 nM. Then `Cc1[nH]nc2c1-c1cc(F)c(NC(=O)[C@@H](NC(=O)c3ccnn3C(C)C)C(C3CC3)C3CC3)cc1CN(CC(F)(F)F)C(=O)C2` [compound 152], with at most 50 nM; and `Cc1[nH]nc2c1-c1cc(F)c(NC(=O)[C@@H](NC(=O)c3ccnn3C(C)C)C(C3CC3)C3CC3)cc1CN(CC1CC1)C(=O)C2` [compound 153], with at most 50 nM; and `CCN1CCc2n[nH]c(C)c2-c2cc(F)c(NC(=O)[C@@H](NC(=O)c3ccnn3C(C)C)C(C3CC3)C3CC3)cc2C1` [compound 156], with at most 50 nM. As for `Cc1[nH]nc2c1-c1cc(F)c(NC(=O)[C@@H](NC(=O)c3ccnn3C(C)C)C(C3CC3)C3CC3)cc1CN(CC(F)F)CC2` [compound 158], the half-maximal inhibitory concentration (IC50) was at most 50 nM. `CCn1nccc1C(=O)N[C@H](C(=O)Nc1cc2c(cc1F)-c1c(n[nH]c1C)CCN(CC(F)F)C2)C(C1CC1)C1CC1` [compound 159]: the IC50 is at most 50 nM. With `Cc1[nH]nc2c1-c1cc(F)c(NC(=O)[C@@H](NC(=O)c3ccnn3C(C)C)C(C3CC3)C3CC3)cc1CN(CC(C)(F)F)CC2` [compound 160], the half-maximal inhibitory concentration (IC50) was at most 50 nM.

For `CCn1nccc1C(=O)N[C@H](C(=O)Nc1cc2c(cc1F)-c1c(n[nH]c1C)CCN(CC(C)(F)F)C2)C(C1CC1)C1CC1` [compound 161], the IC50 is at most 50 nM. With `Cc1[nH]nc2c1-c1cc(F)c(NC(=O)[C@@H](NC(=O)c3ccnn3C(C)C)C(C3CC3)C3CC3)cc1CN(CC(F)(F)F)CC2` [compound 164], the IC50 was at most 50 nM. On to `Cc1[nH]nc2c1-c1cc(F)c(NC(=O)[C@@H](NC(=O)c3ccnn3C(C)C)C(C3CC3)C3CC3)cc1CN(C1CC1)CC2` [compound 165], for which the IC50 is at most 50 nM.
